Measured values published in article PMC6773864, “The functional ClpXP protease of Chlamydia trachomatis requires distinct clpP genes from separate genetic loci” (Scientific Reports, 2019).
*1 amine or outer side, *2 acyl side, *3 side chain or, on linkers, in order; H or OH if unused. Where a SMILES comes first, the peptide text is derived from it. The star is where a group is joined. AMC = Cc1cc(=O)oc2cc(N*)ccc12; Suc = O=C(CCC(=O)[*:2])[*:1]

Legend:
ctClpP1P2 [1] = biological target: T1, ctClpP1P2 (Chlamydia trachomatis, UniProt O84712+P38002); assay: peptidase assay, fluorescence (AMC release); assay type: biochemical; settings: 100 µM substrate, 3 µM ClpP, no ADEP1, pH 7.6, 32 °C
T1 construct: gene clpP1; full-length, C-terminal Strep-tag on both (kept), expressed in E. coli dAPX-1 (clpP/clpX/clpA deleted), mixed 1:1; hetero-tetradecamer
T1 sequence (P38002 2-192): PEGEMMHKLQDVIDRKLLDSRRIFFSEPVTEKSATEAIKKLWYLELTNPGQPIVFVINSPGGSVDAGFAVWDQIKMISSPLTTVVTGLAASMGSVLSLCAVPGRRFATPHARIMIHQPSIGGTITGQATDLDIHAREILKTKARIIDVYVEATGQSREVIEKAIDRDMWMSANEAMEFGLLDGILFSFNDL
T1 sequence (O84712 whole entry): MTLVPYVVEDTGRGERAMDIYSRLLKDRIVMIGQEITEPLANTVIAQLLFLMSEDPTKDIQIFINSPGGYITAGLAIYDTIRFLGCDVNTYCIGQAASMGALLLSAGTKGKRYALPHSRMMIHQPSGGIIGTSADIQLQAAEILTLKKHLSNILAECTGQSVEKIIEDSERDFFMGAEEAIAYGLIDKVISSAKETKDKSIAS

ctClpP1P2 [2] = biological target: T1, ctClpP1P2; assay: Suc-LY-AMC peptidase assay, fluorescence (AMC release); assay type: biochemical; settings: activator; 15 µM ADEP1, 3 µM ClpP, 100 µM Suc-LY-AMC, no ClpX, pH 7.6, 32 °C; binds preferably via ClpP2 hydrophobic pocket

Molecule: Cc1cc(=O)oc2cc(NC(=O)[C@H](Cc3ccc(O)cc3)NC(=O)[C@H](CC(C)C)NC(=O)CCC(=O)O)ccc12 [Suc-LY-AMC] (Suc-Leu-Tyr-{AMC})
- peptidase assay, fluorescence (AMC release) (ctClpP1P2 [1]): when combined, ctClpP1P2 steadily hydrolysed Suc-LY-AMC

Molecule: ADEP1
- fold increase in peptidase activity at 15 μM (ctClpP1P2 [2]): > 2.5 fold
